Reference: patent US9241487B2, “Pyrimidine derivatives and use thereof as pesticides” (BAYER INTELLECTUAL PROPERTY GMBH, priority 2010, dated 2016)

Tests used:
Leptosphaeria nodorum = Leptosphaeria nodorum test (wheat)/protective; type: in vivo; settings: Parastagonospora nodorum, wheat plants, protective spray, evaluation 7-9 days after inoculation, read-out: Efficacy (%)
Method: Leptosphaeria nodorum Test (Wheat)/Protective
(§1) Solvent: 49 parts by weight of N,N-dimethylformamide
(§2) Emulsifier: 1 part by weight of alkylaryl polyglycol ether
To produce a suitable preparation of active compound, 1 part by weight of active compound is mixed with the stated amounts of solvent and emulsifier, and the concentrate is diluted with water to the desired concentration. To test for protective activity, young wheat plants are sprayed with the preparation of active compound at the stated application rate. 1 day after the treatment, the plants are inoculated with an aqueous spore suspension of Leptosphaeria nodorum and then remain at 100% relative atmospheric humidity and 22° C. for 48 h. The plants are then placed in a greenhouse at 90% relative atmospheric humidity and a temperature of 22° C. Evaluation is carried out 7-9 days after the inoculation. 0% means an efficacy which corresponds to that of the control, whereas an efficacy of 100% means that no infection is observed. In this test, the following compounds according to the invention show, at an active compound concentration of 500 ppm, an efficacy of 70% or more: […]

Sphaerotheca fuliginea = experiment: Sphaerotheca test (cucumber)/protective; type: in vivo; settings: Podosphaera fuliginea, 168 h, cucumber plants, protective spray, evaluation 7 days after inoculation, read-out: Efficacy (%)
Method: Sphaerotheca Test (Cucumber)/Protective
as §1, §2
To produce a suitable preparation of active compound, 1 part by weight of active compound is mixed with the stated amounts of solvent and emulsifier, and the concentrate is diluted with water to the desired concentration. To test for protective activity, young cucumber plants are sprayed with the preparation of active compound at the stated application rate. 1 day after the treatment, the plants are inoculated with a spore suspension of Sphaerotheca fuliginea. The plants are then placed in a greenhouse at 70% relative air humidity and a temperature of 23° C. Evaluation follows 7 days after the inoculation. 0% means an efficacy which corresponds to that of the control, whereas an efficacy of 100% means that no infection is observed. In this test, the following compounds according to the invention show, at an active compound concentration of 500 ppm, an efficacy of 70% or more: […]

Alternaria solani = experiment: Alternaria test (tomato)/protective; type: in vivo; settings: 168 h, tomato plants, protective spray, evaluation 7 days after inoculation, read-out: Efficacy (%)
Method: Alternaria Test (Tomato)/Protective
as §1, §2
To produce a suitable preparation of active compound, 1 part by weight of active compound is mixed with the stated amounts of solvent and emulsifier, and the concentrate is diluted with water to the desired concentration. To test for protective activity, young tomato plants are sprayed with the preparation of active compound at the stated application rate. 1 day after the treatment, the plants are inoculated with a spore suspension of Alternaria solani and then remain at 100% rd. humidity and 22° C. for 24 h. The plants then remain at 96% rd. atmospheric humidity and a temperature of 20° C. Evaluation is carried out 7 days after the inoculation. 0% means an efficacy which corresponds to that of the control, whereas an efficacy of 100% means that no infection is observed.
(§3) In this test, the following compounds according to the invention show, at an active compound concentration of 500 ppm, an efficacy of 70% or more: […]

Venturia inaequalis = experiment: Venturia test (apple)/protective; type: in vivo; settings: 240 h, protective spray, evaluation 10 days after inoculation, read-out: Efficacy (%)
Method: Venturia Test (Apple)/Protective
(§4) Solvents: 24.5 parts by weight of acetone
(§5) • 24.5 parts by weight of dimethylacetamide Emulsifier: 1 part by weight of alkylaryl polyglycol ether
(§6) To produce a suitable preparation of active compound, 1 part by weight of active compound is mixed with the stated amounts of solvent and emulsifier, and the concentrate is diluted with water to the desired concentration. To test for protective activity, young plants are sprayed with the preparation of active compound at the stated application rate. After the spray coating has dried on, the plants are inoculated with an aqueous conidia suspension of the apple scab pathogen Venturia inaequalis and then remain in an incubation cabin at approx. 20° C. and 100% relative air humidity for 1 day. The plants are then placed in the greenhouse at about 21° C. and a relative atmospheric humidity of about 90%. Evaluation follows 10 days after the inoculation. 0% means an efficacy which corresponds to that of the control, whereas an efficacy of 100% means that no infection is observed.
(§7) In this test, the following compounds according to the invention show, at an active compound concentration of 100 ppm, an efficacy of 70% or more: […]

Septoria tritici = Septoria tritici test (wheat)/protective; type: in vivo; settings: Zymoseptoria tritici, 504 h, protective spray, evaluation 21 days after inoculation, read-out: Efficacy (%)
Method: Septoria tritici Test (Wheat)/Protective
(§8) Solvent: 49 parts by weight of N,N-dimethylacetamide
as §2
(§9) To produce a suitable preparation of active compound, 1 part by weight of active compound is mixed with the stated amounts of solvent and emulsifier, and the concentrate is diluted with water to the desired concentration. To test for protective activity, young plants are sprayed with the preparation of active compound at the stated application rate. After the spray coating has dried on, the plants are sprayed with a spore suspension of Septoria tritici. The plants remain in an incubation cabin at 20° C. and 100% relative atmospheric humidity for 48 hours. Thereafter, the plants are placed under a translucent hood at 15° C. and 100% relative air humidity for a further 60 hours. The plants are placed in a greenhouse at a temperature of about 15° C. and a relative atmospheric humidity of about 80%. Evaluation follows 21 days after the inoculation. 0% means an efficacy which corresponds to that of the control, whereas an efficacy of 100% means that no infection is observed.
as §3

[1] = tested on: Blumeria graminis fsp. hordei; experiment: Blumeria graminis test (barley)/protective; type: in vivo; settings: 168 h, protective spray, evaluation 7 days after inoculation, read-out: Efficacy (%)
Method: Blumeria graminis Test (Barley)/Protective
as §8, §2
To produce a suitable preparation of active compound, 1 part by weight of active compound is mixed with the stated amounts of solvent and emulsifier, and the concentrate is diluted with water to the desired concentration. To test for protective activity, young plants are sprayed with the preparation of active compound at the stated application rate. After the spray coating has dried on, the plants are dusted with spores of Blumeria graminis fsp. hordei. The plants are placed in a greenhouse at a temperature of about 18° C. and a relative air humidity of about 80% to promote the development of mildew pustules. Evaluation follows 7 days after the inoculation. 0% means an efficacy which corresponds to that of the control, whereas an efficacy of 100% means that no infection is observed.
as §3

[2] = log P by HPLC on reversed-phase columns (C 18), EEC directive 79/831 Annex V.A8; type: physicochemical; settings: reversed-phase HPLC columns (C 18); method [a]: LC-MS, acidic range pH 2.7, 0.1% aqueous formic acid/acetonitrile, gradient 10% to 95% acetonitrile
Method: The log P values were measured according to EEC directive 79/831 Annex V.A8 by HPLC (High Performance Liquid Chromatography) on reversed-phase columns (C 18), using the methods below: [a] The LC-MS determination in the acidic range is carried out at pH 2.7 with 0.1% aqueous formic acid and acetonitrile (contains 0.1% formic acid) as mobile phases; linear gradient from 10% acetonitrile to 95% acetonitrile.

Uromyces appendiculatus = experiment: Uromyces test (bean)/protective; type: in vivo; settings: 240 h, protective spray, evaluation 10 days after inoculation, read-out: Efficacy (%)
Method: Uromyces Test (Bean)/Protective
as §4, §5
as §6, with “spore” for “conidia”, “bean rust” for “apple scab”, “Uromyces appendiculatus” for “Venturia inaequalis”, “about” for “approx.”, “atmospheric” for “air”
as §7

Puccinia triticina = Puccinia triticina test (wheat)/protective; type: in vivo; settings: 192 h, protective spray, evaluation 8 days after inoculation, read-out: Efficacy (%)
Method: Puccinia triticina Test (Wheat)/Protective
as §8, §2
as §9, with “sprayed with spores with a spore” for “sprayed with a spore”, “suspension of Puccinia triticina. The plants” for “suspension of Septoria tritici. The plants”, “48 hours. The plants” for “48 hours. Thereafter, the plants are placed under a translucent hood at 15° C. and 100% relative air humidity for a further 60 hours. The plants”, “of about 20° C. and” for “of about 15° C. and”, “Evaluation follows 8 days after” for “Evaluation follows 21 days after”
as §3

Row | Structure (SMILES) | pest or weed control at 500 ppm (Leptosphaeria nodorum) | pest or weed control at 500 ppm (Sphaerotheca fuliginea) | pest or weed control at 500 ppm (Alternaria solani) | pest or weed control at 100 ppm (Venturia inaequalis) | pest or weed control at 500 ppm (Septoria tritici) | pest or weed control at 500 ppm [1] | chromatographic logP [2] | pest or weed control at 100 ppm (Uromyces appendiculatus) | pest or weed control at 500 ppm (Puccinia triticina)
1 | CC#CC(O)(c1cncnc1)C(C)(C)Sc1ccc(SC(F)(F)F)cc1 (centres unmarked) [Compound 15] | 95% | 88% | 94% |  |  |  |  |  | 
2 | CC(C)(Oc1cccc(OC(F)(F)F)c1)C(C)(O)c1cncnc1 (centres unmarked) [Compound 22] | 100% | 95% | 100% | 94% |  |  |  |  | 
3 | CC#CC(O)(c1cncnc1)C(C)(C)Sc1ccc(OC(F)(F)F)cc1 (centres unmarked) [Compound 13] | 95% | 76% | 100% |  |  |  |  |  | 
4 | CC(C)(Sc1ccc(OC(F)(F)F)cc1)C(C)(O)c1cncnc1 (centres unmarked) [Compound 10] | 100% |  | 100% |  |  |  |  |  | 
5 | CC(C)(C)C(O)(CSc1ccc(SC(F)(F)F)cc1)c1cncnc1 (centres unmarked) [Compound 4] | 70% | 91% | 95% |  | 100% | 89% |  |  | 
6 | CC(C)C(O)(CSc1ccc(SC(F)(F)F)cc1)c1cncnc1 (centres unmarked) [Compound 3] | 90% | 94% | 95% |  | 75% | 100% | 3.28 |  | 
7 | CC(C)C(O)(c1cncnc1)C(C)(C)Oc1cccc(OC(F)(F)F)c1 (centres unmarked) [Compound 24] | 80% | 83% | 95% |  |  |  |  |  | 
8 | Cc1cc(OCC(O)(c2cncnc2)C(C)(C)C)ccc1SC(F)(F)F (centres unmarked) [Compound 32] |  | 95% |  |  |  |  | 3.04 |  | 
9 | CC(C)(C)C(O)(COc1ccc(OC(F)F)cc1)c1cncnc1 (centres unmarked) [Compound 34] | 100% | 95% | 95% |  |  |  | 2.63 |  | 
10 | OC(COc1ccc(OC(F)(F)F)cc1)(c1cncnc1)C1(Cl)CC1 (centres unmarked) [Compound 20] | 95% | 75% | 100% | 100% |  |  |  | 98% | 
11 | C=CCC(O)(c1cncnc1)C(C)(C)Sc1ccc(SC(F)(F)F)cc1 (centres unmarked) [Compound 16] | 70% |  | 100% |  |  |  |  |  | 
12 | CC(C)(Oc1ccccc1OC(F)(F)F)C(C)(O)c1cncnc1 (centres unmarked) [Compound 25] |  |  | 90% |  |  |  |  |  | 
13 | CC(C)C(O)(c1cncnc1)C(C)(C)Oc1ccccc1OC(F)(F)F (centres unmarked) [Compound 27] |  | 88% |  |  |  |  |  |  | 
14 | OC(COc1ccc(SC(F)(F)F)cc1)(c1cncnc1)C1(Cl)CC1 (centres unmarked) [Compound 21] |  | 100% | 95% |  |  |  |  |  | 
15 | OC(c1cncnc1)(c1ccc(F)cc1F)C1(Oc2ccc(SC(F)(F)F)cc2)CC1 (centres unmarked) [Compound 8] |  | 100% | 80% |  |  |  |  |  | 
16 | CC#CC(O)(c1cncnc1)C(C)(C)Oc1ccc(OC(F)(F)F)cc1 (centres unmarked) [Compound 14] | 100% | 95% | 94% |  | 90% | 100% |  |  | 89%
17 | CC(C)(Oc1ccc(OC(F)(F)F)cc1)C(C)(O)c1cncnc1 (centres unmarked) [Compound 9] | 100% | 95% | 100% | 94% | 90% | 100% |  | 100% | 100%
18 | CC(C)(C)C(O)(CCc1ccc(SC(F)(F)F)cc1)c1cncnc1 (centres unmarked) [Compound 7] | 95% | 95% | 94% |  |  |  |  |  | 
19 | CC(C)(Sc1ccc(SC(F)(F)F)cc1)C(C)(O)c1cncnc1 (centres unmarked) [Compound 11] | 95% |  | 100% |  |  |  |  |  | 
20 | CC(C)(C)C(O)(COc1ccc(OC(F)(F)F)cc1Cl)c1cncnc1 (centres unmarked) [Compound 29] | 75% | 100% | 78% |  |  |  | 3.47 |  | 
21 | CC#CC(O)(c1cncnc1)C(C)(C)Oc1cccc(OC(F)(F)F)c1 (centres unmarked) [Compound 23] | 70% | 88% | 75% |  |  |  |  |  | 
